In patent US20250288573A1 (H. LEE MOFFITT CANCER CENTER AND RESEARCH INSTITUTE, INC., priority 2018, published 2025):
Like-named read-outs stand apart in the source and are kept apart here.

Columns and labels:
cereblon = target: T1, cereblon (Mus musculus, UniProt Q8C7D2); assay: Western blot of cereblon in splenic T cells / splenocytes of mice treated orally with a single dose; format: in vivo; details: single oral dose of 75 mg/kg
T1 construct: from tissue; host or cells: spleen: purified splenic T cells and total splenocytes of treated mice
T1 sequence (Q8C7D2 1-445): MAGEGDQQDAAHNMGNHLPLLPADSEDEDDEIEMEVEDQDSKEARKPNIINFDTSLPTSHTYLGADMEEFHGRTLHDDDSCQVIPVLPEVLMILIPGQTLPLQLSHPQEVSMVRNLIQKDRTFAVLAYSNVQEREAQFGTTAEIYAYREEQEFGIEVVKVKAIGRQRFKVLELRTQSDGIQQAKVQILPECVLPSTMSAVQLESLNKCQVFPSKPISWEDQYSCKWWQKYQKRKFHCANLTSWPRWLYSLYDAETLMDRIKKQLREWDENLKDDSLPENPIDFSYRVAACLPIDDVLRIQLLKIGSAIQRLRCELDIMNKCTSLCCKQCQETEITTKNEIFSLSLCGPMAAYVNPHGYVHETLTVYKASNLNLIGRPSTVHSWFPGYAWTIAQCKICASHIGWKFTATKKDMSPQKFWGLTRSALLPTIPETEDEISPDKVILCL
Experimental: FIG. 24 is a graph of results from Western blots from purified splenic T cells of mice treated orally with a single dose of 75 mg/kg SM2-145. Three mice were obtained from each time point (1, 6, 12, and 24 hrs) after treatment.
FIG. 25 contains a Western blot analysis of purified T cells from mice treated orally with a single dose of 75 mg/kg EC2-035 and EC2-134.

CRBN = target: T2, CRBN (Homo sapiens, UniProt Q96SW2); assay: Western blot for expression of CRBN relative to vinculin in human T cells (CRBN degradation); format: cell-based; details: for remaining activity at 10 µM / remaining activity at 0.01 µM: read-out: Relative Density of CRBN (% of DMSO)
T2 construct: endogenous in cells; host or cells: primary human T cells / CD8+ T cells from peripheral blood
T2 sequence (Q96SW2 whole entry): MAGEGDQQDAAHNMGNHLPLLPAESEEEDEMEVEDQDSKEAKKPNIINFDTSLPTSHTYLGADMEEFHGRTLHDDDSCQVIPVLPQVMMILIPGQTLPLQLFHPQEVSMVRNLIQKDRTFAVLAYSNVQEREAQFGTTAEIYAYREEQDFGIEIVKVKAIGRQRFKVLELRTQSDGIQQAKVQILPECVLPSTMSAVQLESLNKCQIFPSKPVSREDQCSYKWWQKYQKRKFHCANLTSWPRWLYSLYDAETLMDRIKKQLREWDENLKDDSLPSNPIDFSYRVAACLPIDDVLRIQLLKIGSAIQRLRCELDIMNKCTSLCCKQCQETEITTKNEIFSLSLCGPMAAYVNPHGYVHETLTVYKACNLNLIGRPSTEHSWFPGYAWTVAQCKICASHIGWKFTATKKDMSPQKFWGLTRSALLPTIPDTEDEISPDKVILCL
Source text: Bortez=bortezomib; MG132=proteasome inhibitor; MLN4924=NEDD8 inhibitor.
This assay is a standard Western blot assay for expression of CRBN relative to vinculin.
[…] 0.1 percent DMSO was used as a vehicle control.

cereblon (CRBN) [1] = target: T3, cereblon (CRBN) (Homo sapiens, UniProt Q96SW2); assay: Kd and % inhibition from FI; format: binding; details: for inhibition at 200 µM: read-out: % inhibition @ 200 uM from *FI
T3 sequence (Q96SW2 whole entry, species assumed): as the sequence (Q96SW2 whole entry) above

cereblon (CRBN) [2] = target: T3, cereblon (CRBN); assay: Kd from ITC; format: binding
cereblon (CRBN) [3] = target: T4, cereblon (CRBN) (Mus musculus, UniProt Q8C7D2); assay: Western blot of cereblon (CRBN) levels in mouse CD8+ T cells; format: cell-based; details: 24 hours of treatment
T4 construct: endogenous in cells; host or cells: mouse CD8+ T cells
T4 sequence (Q8C7D2 1-445): T1 sequence (Q8C7D2 1-445)

[4] = 24 h, 10nM, human T cells, 24 hours
[5] = FI, read-out: Kd (FI) (converted)
[6] = cell does not state FI or ITC, read-out: Kd (A) FI/ITC

remaining activity at 10 µM (CRBN; 10uM)	remaining activity at 0.01 µM (CRBN; [4])	Kd (cereblon (CRBN) [1]; [5])	inhibition at 200 µM (cereblon (CRBN) [1])	Compound	other results
	11.8%	2.53 ± 1.53 µM		O=C1CC[C@H](N2Cc3c(C#CCOCCOCC#Cc4cccc5c4CN([C@H]4CCC(=O)NC4=O)C5=O)cccc3C2=O)C(=O)N1 [XS01-008B2, (3S,3'S)-3,3′-(((Ethane-1,2-diylbis(oxy))bis(prop-1-yne-3,1-diyl))bis(1-oxoisoindoline-4,2-diyl))bis(piperidine-2,6-dione)]	
12.4%	53.6%	11.1 ± 0.58 µM	76.2 ± 1.54%	O=C1CCC(N2Cc3c(CCCOCCOCCOCCCc4cccc5c4CN(C4CCC(=O)NC4=O)C5=O)cccc3C2=O)C(=O)N1 (centres unmarked) [SM2-129, 3,3′-((((Oxybis(ethane-2,1-diyl))bis(oxy))bis(propane-3,1-diyl))bis(1-oxoisoindoline-4,2-diyl))bis(piperidine-2,6-dione)]	
86.9%	119%	14.3 ± 0.52 µM	72.4 ± 0.84%	O=C(CCc1cccc2c1CN(C1CCC(=O)NC1=O)C2=O)NCCOCCNC(=O)CCc1cccc2c1CN(C1CCC(=O)NC1=O)C2=O (centres unmarked) [SM3-010, N,N′-(Oxybis(ethane-2,1-diyl))bis(3-(2-(2,6-dioxopiperidin-3-yl)-1-oxoisoindolin-4-yl)propanamide)]	
13.3%				O=C1CCC(N2Cc3c(CCCCCCCCCCc4cccc5c4CN(C4CCC(=O)NC4=O)C5=O)cccc3C2=O)C(=O)N1 (centres unmarked) [EC2-093, 3,3′-(Decane-1,10-diylbis(1-oxoisoindoline-4,2-diyl))bis(piperidine-2,6-dione)]	Kd (cereblon (CRBN) [1]; [6]): 35.5 ± 47.9 µM
7.19%	91.2%	22.1 ± 1.47 µM	71.6 ± 2%	O=C1CCC(N2Cc3c(NC(=O)CCCCCC(=O)Nc4cccc5c4CN(C4CCC(=O)NC4=O)C5=O)cccc3C2=O)C(=O)N1 (centres unmarked) [EC1-141, N^1,N^7-Bis(2-(2,6-dioxopiperidin-3-yl)-1-oxoisoindolin-4-yl)heptanediamide]	
136%	1.75%			O=C1CCC(N2Cc3c(C#CCOCCOCC#Cc4cccc5c4CN(C4CCC(=O)NC4=O)C5=O)cccc3C2=O)C(=O)N1 (centres unmarked) [SY4-065]	Kd (A) FI/ITC (cereblon (CRBN) [1]; cell does not state FI or ITC): n.b.
19.4%	44.3%	9.38 ± 0.59 µM	79.6 ± 3.13%	O=C1CCC(N2Cc3c(CCCOCCOCCOCCOCCCc4cccc5c4CN(C4CCC(=O)NC4=O)C5=O)cccc3C2=O)C(=O)N1 (centres unmarked) [SM2-139, 3,3′-((4,7,10,13-Tetraoxahexadecane-1,16-diyl)bis(1-oxoisoindoline-4,2-diyl))bis(piperidine-2,6-dione)]	
59.1%	108%	8.21 ± 1.22 µM	83.88 ± 0.28%	O=C(/C=C/c1cccc2c1CN(C1CCC(=O)NC1=O)C2=O)NCCOCCOCCOCCNC(=O)/C=C/c1cccc2c1CN(C1CCC(=O)NC1=O)C2=O (centres unmarked) [SM3-009, (2E,2′E)-N,N′-(((Oxybis(ethane-2,1-diyl))bis(oxy))bis(ethane-2,1-diyl))bis(3-(2-(2,6-dioxopiperidin-3-yl)-1-oxoisoindolin-4-yl)acrylamide)]	
1.74%	76.3%	22.8 ± 0.55 µM	87.3 ± 2%	O=C1CCC(N2Cc3c(NC(=O)CCCCC(=O)Nc4cccc5c4CN(C4CCC(=O)NC4=O)C5=O)cccc3C2=O)C(=O)N1 (centres unmarked) [EC1-149, N^1,N^6-Bis(2-(2,6-dioxopiperidin-3-yl)-1-oxoisoindolin-4-yl)adipamide]	
10.3%				O=C1CCC(N2Cc3c(C#CCCCCCCC#Cc4cccc5c4CN(C4CCC(=O)NC4=O)C5=O)cccc3C2=O)C(=O)N1 (centres unmarked) [EC2-086, 3,3′-(Deca-1,9-diyne-1,10-diylbis(1-oxoisoindoline-4,2-diyl))bis(piperidine-2,6-dione)]	Kd (cereblon (CRBN) [1]; [6]): 86.5 ± 25.3 µM

More lines, now with the values behind:

Compound	remaining activity at 10 µM (CRBN; 10uM)	remaining activity at 0.01 µM (CRBN; [4])	Kd (cereblon (CRBN) [1]; [5])	inhibition at 200 µM (cereblon (CRBN) [1])	other results
O=C1CCC(N2Cc3c(NCc4ccc(CNc5cccc6c5CN(C5CCC(=O)NC5=O)C6=O)cc4)cccc3C2=O)C(=O)N1 (centres unmarked) [EC2-035, 3,3′-(((1,4-Phenylenebis(methylene))bis(azanediyl))bis(1-oxoisoindoline-4,2-diyl))bis(piperidine-2,6-dione)]	99.7%	2.32%			cereblon levels in purified splenic T cells (cereblon): sustained reduction in cereblon levels at 6, 9 and 12 hours
O=C1CCC(N2Cc3c(NC(=O)[C@H]4CC[C@H](C(=O)Nc5cccc6c5CN(C5CCC(=O)NC5=O)C6=O)CC4)cccc3C2=O)C(=O)N1 (stereo partly drawn) [EC1-154, (Trans)-N^1,N^4-Bis(2-(2,6-dioxopiperidin-3-yl)-1-oxoisoindolin-4-yl)cyclohexane-1,4-dicarboxamide]				18.4 ± 77%	remaining activity at 0.01 µM (CRBN; 24 h): 103%; remaining activity at 10 µM (CRBN): 44.2%
O=C1CCC(N2C(=O)c3cccc(NC(=O)CCCCCCCC(=O)Nc4cccc5c4C(=O)N(C4CCC(=O)NC4=O)C5=O)c3C2=O)C(=O)N1 (centres unmarked)	6.19%	29.8%			% inhibition @ 200 uM from *FI (cereblon (CRBN) [1]): n.b
O=C(COc1cccc2c1C(=O)N(C1CCC(=O)NC1=O)C2=O)NCCCCNC(=O)COc1cccc2c1C(=O)N(C1CCC(=O)NC1=O)C2=O (centres unmarked) [SY2-060, N,N′-(Butane-1,4-diyl)bis(2-((2-(2,6-dioxopiperidin-3-yl)-1,3-dioxoisoindolin-4-yl)oxy)acetamide)]				1.52 ± 1.91%	remaining activity at 0.01 µM (CRBN; 24 h): 104%
O=C1CCC(N2Cc3c(CCCOCCOCCOCCOCCOCCCc4cccc5c4CN(C4CCC(=O)NC4=O)C5=O)cccc3C2=O)C(=O)N1 (centres unmarked) [SM2-156, 3,3′-((4,7,10,13,16-Pentaoxanonadecane-1,19-diyl)bis(1-oxoisoindoline-4,2-diyl))bis(piperidine-2,6-dione)]	33.4%	56.8%	11.2 ± 0.53 µM	79.5 ± 2.29%	
O=C1CCC(N2C(=O)c3cccc(NC(=O)[C@H]4CC[C@H](C(=O)Nc5cccc6c5C(=O)N(C5CCC(=O)NC5=O)C6=O)CC4)c3C2=O)C(=O)N1 (stereo partly drawn) [EC1-135, (trans)-N^1,N^4-bis(2-(2,6-Dioxopiperidin-3-yl)-1,3-dioxoisoindolin-4-yl)cyclohexane-1,4-dicarboxamide]	36.5%	134%			% inhibition @ 200 uM from *FI (cereblon (CRBN) [1]): n.b.
O=C(COc1cccc2c1C(=O)N(C1CCC(=O)NC1=O)C2=O)NCCOCCOCCNC(=O)COc1cccc2c1C(=O)N(C1CCC(=O)NC1=O)C2=O (centres unmarked) [SM2-048]	15.8%	99.5%	11.3 µM	68.2 ± 3.33%	Kd (cereblon (CRBN) [2]): 12.3 ± 0.4 µM; CRBN expression (Western blot) (CRBN; anti-CD3/anti-CD28 stimulated human T cells, 0.1, 1, and 10 μM): significant reduction in CRBN expression
O=C1CCC(N2C(=O)c3cccc(NC(=O)CCCCC(=O)Nc4cccc5c4C(=O)N(C4CCC(=O)NC4=O)C5=O)c3C2=O)C(=O)N1 (centres unmarked) [EC1-120, N^1,N^6-bis(2-(2,6-Dioxopiperidin-3-yl)-1,3-dioxoisoindolin-4-yl)adipamide]	16.8%	95.3%		23.2 ± 20%	
O=C1CCC(NC(=O)CCCCCCCCC(=O)NC2CCC(=O)NC2=O)C(=O)N1 (centres unmarked) [XS01-039, N^1,N^10-Bis(2,6-dioxopiperidin-3-yl)decanediamide]	0.98%	61.3%			Kd (cereblon (CRBN) [1]; [6]): 161 ± 19.3 µM; remaining activity at 0.01 µM (CRBN; 10nM, B2): 92.9%; remaining activity at 10 µM (CRBN; 10uM, B2): 13.1%
O=C1CCC(N2Cc3c(OCc4ccc(CN5CCN(Cc6ccc(COc7cccc8c7CN(C7CCC(=O)NC7=O)C8=O)cc6)CC5)cc4)cccc3C2=O)C(=O)N1 (centres unmarked) [EC1-168.MS]	107%				Kd (A) FI/ITC (cereblon (CRBN) [1]; cell does not state FI or ITC): insoluble
COCCOCCCc1cccc2c1CN(C1CCC(=O)NC1=O)C2=O (centres unmarked) [SM3-095, 3-(4-(3-(2-Methoxyethoxy)propyl)-1-oxoisoindolin-2-yl)piperidine-2,6-dione]					cereblon (CRBN) levels (Western blot) (cereblon (CRBN) [3]): not
O=C1CCC(N2C(=O)c3cccc(NC(=O)CCCC(=O)Nc4cccc5c4C(=O)N(C4CCC(=O)NC4=O)C5=O)c3C2=O)C(=O)N1 (centres unmarked) [EC1-117, N^1,N^5-bis(2-(2,6-Dioxopiperidin-3-yl)-1,3-dioxoisoindolin-4-yl)glutaramide]	19.8%	114%		47.9 ± 11%	
